Test results as given in publication PMC11945486, “TAS1R2/TAS1R3 Single-Nucleotide Polymorphisms Affect Sweet Taste Receptor Activation by Sweeteners: The SWEET Project” (Nutrients, 2025).
No end group written: not given here.

T1: human TAS1R2-I486V/TAS1R3-WT (Homo sapiens, UniProt Q7RTX0+Q8TE23, I486V)
T1 construct: expressed in transfected cells; host or cells: HEK293T-Gα16gust44
T1 sequence (Q8TE23 20-839 I486V): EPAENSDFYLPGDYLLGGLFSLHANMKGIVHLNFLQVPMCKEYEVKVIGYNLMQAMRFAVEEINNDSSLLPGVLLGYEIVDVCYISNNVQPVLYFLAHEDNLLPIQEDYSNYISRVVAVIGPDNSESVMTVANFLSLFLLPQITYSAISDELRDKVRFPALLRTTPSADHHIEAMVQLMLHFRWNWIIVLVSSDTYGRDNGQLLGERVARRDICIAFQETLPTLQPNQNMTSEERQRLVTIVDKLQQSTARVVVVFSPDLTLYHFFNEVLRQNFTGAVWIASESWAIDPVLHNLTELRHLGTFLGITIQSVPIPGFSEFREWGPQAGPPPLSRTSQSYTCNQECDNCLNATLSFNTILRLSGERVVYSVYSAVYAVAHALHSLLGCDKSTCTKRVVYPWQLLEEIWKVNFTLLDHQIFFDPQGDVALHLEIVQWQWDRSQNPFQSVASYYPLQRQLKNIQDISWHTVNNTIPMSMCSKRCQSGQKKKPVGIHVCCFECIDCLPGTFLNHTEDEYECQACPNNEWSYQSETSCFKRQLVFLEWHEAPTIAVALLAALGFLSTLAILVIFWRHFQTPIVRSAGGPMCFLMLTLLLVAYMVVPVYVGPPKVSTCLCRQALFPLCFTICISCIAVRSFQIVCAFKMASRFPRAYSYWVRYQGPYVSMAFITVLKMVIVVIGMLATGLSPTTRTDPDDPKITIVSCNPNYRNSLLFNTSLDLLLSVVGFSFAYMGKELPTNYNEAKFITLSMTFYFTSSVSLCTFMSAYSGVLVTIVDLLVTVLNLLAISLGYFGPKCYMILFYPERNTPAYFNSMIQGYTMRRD
T1 sequence (Q7RTX0 21-852): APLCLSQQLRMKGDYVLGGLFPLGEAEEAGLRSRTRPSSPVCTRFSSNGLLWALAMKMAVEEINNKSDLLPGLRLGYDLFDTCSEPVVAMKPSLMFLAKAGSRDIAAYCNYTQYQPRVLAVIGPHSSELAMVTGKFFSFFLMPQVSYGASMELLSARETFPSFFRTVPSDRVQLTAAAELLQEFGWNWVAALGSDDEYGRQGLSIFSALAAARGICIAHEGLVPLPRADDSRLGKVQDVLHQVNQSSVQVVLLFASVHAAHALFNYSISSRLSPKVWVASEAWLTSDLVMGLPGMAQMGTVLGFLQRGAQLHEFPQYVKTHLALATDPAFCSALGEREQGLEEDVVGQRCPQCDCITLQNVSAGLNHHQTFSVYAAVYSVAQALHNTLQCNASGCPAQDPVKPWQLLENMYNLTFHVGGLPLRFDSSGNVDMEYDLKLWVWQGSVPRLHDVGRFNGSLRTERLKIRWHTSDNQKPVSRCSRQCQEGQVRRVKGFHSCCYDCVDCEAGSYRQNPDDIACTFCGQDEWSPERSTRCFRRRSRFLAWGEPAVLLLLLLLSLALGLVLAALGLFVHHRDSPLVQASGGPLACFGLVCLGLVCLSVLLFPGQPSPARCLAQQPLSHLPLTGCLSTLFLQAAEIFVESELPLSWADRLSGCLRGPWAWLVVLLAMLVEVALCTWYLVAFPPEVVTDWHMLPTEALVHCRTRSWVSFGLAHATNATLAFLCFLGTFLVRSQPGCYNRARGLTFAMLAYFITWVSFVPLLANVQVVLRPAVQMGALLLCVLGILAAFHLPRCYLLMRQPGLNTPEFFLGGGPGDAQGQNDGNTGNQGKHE


Target: T1, human TAS1R2-I486V/TAS1R3-WT
Assay: Calcium mobilisation assay, TAS1R2 variant I486V with TAS1R3-WT
Type: cell-based
Settings: for Max ΔF/F0: maximal signal amplitude
Source text: The coding sequences for TAS1R2 and TAS1R3 were commercially synthesised, and the human codon was optimised for expression in human cells. The coding sequences of human TAS1R2 and TAS1R3 were subcloned and inserted into the mammalian expression vectors pcDNA6/myc-HisA and pcDNA4/myc-HisA (Invitrogen; Thermo Fisher Scientific; Illkirch, France) between the EcoRI and NotI restriction sites, generating the plasmids pcDNA6-TAS1R2 and pcDNA4-TAS1R3, respectively. To increase protein expression in mammalian cells, an upstream start codon was used, which was a sequence called MAX, corresponding to the QBI SP163 element also described in pcDNA4-HisMax (Invitrogen; Thermo Fisher Scientific; Illkirch, France). To measure the expression level of the receptor by immunohistochemistry, we used the FLAG sequence ([…]) in the C-terminal position, which encodes the FLAG tag epitope. SNP variants of TAS1R2 and TAS1R3 were constructed based on […], respectively, using site-directed mutagenesis (Genewiz; Leipzig, Germany).
The HEK293T cells were kindly provided by Jay P. Slack (Givaudan Flavors Corporation; Cincinnati, OH, USA). HEK293T cells stably transfected with Gα16gust44 [43, 67] were seeded in poly-D-lysine-coated clear-bottom black 96-well plates (0.35 × 10^5 cells/well) in high-glucose DMEM supplemented with 2 mM GlutaMAX, 10% dialysed foetal bovine serum with penicillin/streptomycin and G418 (400 μg/mL) at 37 °C and 6.3% CO2 in a humidified atmosphere as previously reported. […] As a negative control, HEK293T cells were mock-transfected with the empty expression vector. After a further 24 h of incubation, the HEK293T cells were washed with C1 buffer (130 mM NaCl, 5 mM KCl, 10 mM HEPES pH 7.4 and 2 mM CaCl2). The 96-well plates containing the cells were then stimulated with sweet-tasting compounds. […] Different concentration ranges were tested depending on the sweet compound injected. The Ca^2+ changes were expressed as fractional changes in fluorescent light intensity: ΔF/F = (F − F0)/F0, where F was the fluorescent light intensity at each point, and F0 was the value of emitted fluorescent light prior to stimulus application. To calculate dose–response relationships, the changes in fluorescence upon stimulus application were averaged, mock-subtracted and baseline-corrected. The dose–response data obtained were adjusted using a 4-parameter logistic equation. The half-maximal effective concentrations (EC50 values) and maximal signal amplitudes were calculated using SigmaPlot software (version 15.0) (Systat Software; San Jose, CA, USA).
For in vitro calcium mobilisation assay performed on hTAS1R2-SNPs, hTAS1R3-SNPs and mTAS1R3-I60T, 6 to 7 concentrations were tested for each sweet compound, plus buffer alone. All concentration–receptor combinations were measured in duplicate, and each experiment was repeated at least 4 times (8 wells/concentration). Results were expressed for each concentration as ΔF/F mean ± SEM and represented as dose–response curves.

| EC50 [µM] | R1 = Variant EC50/WT EC50 | Max ΔF/F0 | Molecule |
| --- | --- | --- | --- |
| 778 ± 108 | 1.1 | 0.46 ± 0.03 | CC1=CC(=O)NS(=O)(=O)O1 [Acesulfame K, acesulfame K] |
| 92.6 ± 5.2 | 1.2 | 0.92 ± 0.02 | COc1ccc(CCC(=O)c2c(O)cc(O[C@@H]3O[C@H](CO)[C@@H](O)[C@H](O)[C@H]3O[C@@H]3O[C@@H](C)[C@H](O)[C@@H](O)[C@H]3O)cc2O)cc1O [NHDC, neohesperidin dihydrochalcone] |
| 0.71 ± 0.06 | 0.8 | 0.61 ± 0.01 | COC(=O)[C@H](Cc1ccccc1)NC(=O)[C@H](CC(=O)O)NCCC(C)(C)C [Neotame] |
| 17.7 ± 1.2 | 1.0 | 1.49 ± 0.04 | C=C(C)[C@@H]1CC=C(/C=N/O)CC1 [Perillartine, perillartine] |
| 17.6 ± 0.6 | 1.0 | 1.20 ± 0.01 | C=C1C[C@@]23CC[C@H]4[C@@](C)(CCC[C@@]4(C)C(=O)O[C@@H]4O[C@H](CO)[C@@H](O)[C@H](O[C@@H]5O[C@H](CO)[C@@H](O)[C@H](O)[C@H]5O)[C@H]4O[C@@H]4O[C@H](CO)[C@@H](O)[C@H](O)[C@H]4O)[C@@H]2CC[C@]1(O[C@@H]1O[C@H](CO)[C@@H](O)[C@H](O[C@@H]2O[C@H](CO)[C@@H](O)[C@H](O)[C@H]2O)[C@H]1O[C@@H]1O[C@H](CO)[C@@H](O)[C@H](O)[C@H]1O)C3 [Rebaudioside M, rebaudioside M] |
| 54 ± 5 | 0.6 | 0.69 ± 0.02 | OC[C@H]1O[C@H](O[C@]2(CCl)O[C@H](CCl)[C@@H](O)[C@@H]2O)[C@H](O)[C@@H](O)[C@H]1Cl [Sucralose] |
| – | 1.1 | 1.19 ± 0.03 | brazzein (QDKCKKVYENYPVSKCQLANQCNYDCKLDKHARSGECFYDEKRNLQCICDYCEY; ends and bridges not checked; cysteine pairing not given here; UniProt P56552 1-54, looked up) [sweet-tasting protein obtained by recombinant production using the yeast Pichia pastoris] |
| – | 1.4 | 1.21 ± 0.02 | thaumatin |
| 10.5 ± 0.3 | – | – | thaumatin (protein, Eight disulfides, sweet-tasting plant protein, E957) ATFEIVNRCSYTVWAAASKGDAALDAGGRQLNSGESWTINVEPGTKGGKIWARTDCYFDDSGSGICKTGDCGGLLRCKRFGRPPTTLAEFSLNQYGKDYIDISNIKGFNVPMDFSPTTRGCRGVRCAADIVGQCPAKLKAPGGGCNDACTVFQTSEYCCTTGKCGPTEYSRFFKRLCPDAFSYVLDKPTTVTCPGSSNYRVTFCPTA |

| Molecule | EC50 [µM] | R1 = Variant EC50/WT EC50 | Max ΔF/F0 |
| --- | --- | --- | --- |
| O=S(=O)(O)NC1CCCCC1 [Cyclamate, cyclamate] | 1880 ± 36 | – | – |
| C[C@H](CC[C@@H](O[C@@H]1O[C@H](CO[C@@H]2O[C@H](CO)[C@@H](O)[C@H](O)[C@H]2O)[C@@H](O)[C@H](O)[C@H]1O[C@@H]1O[C@H](CO)[C@@H](O)[C@H](O)[C@H]1O)C(C)(C)O)[C@H]1CC[C@@]2(C)[C@@H]3CC=C4[C@@H](CC[C@H](O[C@@H]5O[C@H](CO[C@@H]6O[C@H](CO)[C@@H](O)[C@H](O)[C@H]6O)[C@@H](O)[C@H](O)[C@H]5O)C4(C)C)[C@]3(C)[C@H](O)C[C@]12C [Mogroside V, mogroside V] | 20.1 ± 0.9 | 1.2 | 1.39 ± 0.02 |
